A short description of this series: Human HepG2 cell viability assay in 384 well format. Conditions: HepG2 cells, read-out: Inhibition. Details: dose 125 nL, time 70.5 hour; cytotoxicity at 70.5 h: concentration not given beside the values. It is filed as toxicity, cell-based.

The structures appear in SMILES notation.

Turning to `CC(=O)N(c1ccc(F)cc1)c1nc(CN2CCCC2C(C)C)cs1` (centres undefined), the cytotoxicity at 70.5 h turned out to be 24.7%. Next, `O=C(CN1CCN(CCO)CC1)NCc1ccc(Cl)s1`: -1.03%; `N#Cc1cc(N2CCC(S(N)(=O)=O)CC2)c2ccccc2n1`: -2.54%.

`N#Cc1cc(N2CCC(CS(N)(=O)=O)CC2)nc2ccccc12`: the cytotoxicity at 70.5 h was 1.54%. Then `N#Cc1cc(N2CCC(CS(N)(=O)=O)CC2)c2ccccc2n1`, with 14.9%; and `CSc1nc(C2CC2)nc(C)c1C(=O)NCc1cc(C)on1`, with -0.104%; and `O=C(c1ccc[nH]1)N1CCCC1c1nc(-c2ccccc2)n[nH]1` (centres undefined), with -1.48%.

Regarding `COC(=O)CN(Cc1ccccc1C)C(=O)C1CCC1`, the cytotoxicity at 70.5 h came out at 8.03%. As for `CCOCCS(=O)(=O)N(CC)Cc1ccc(Cl)s1`, the cytotoxicity at 70.5 h was -11.4%.

`O=S(=O)(NCCc1c[nH]c2ccc(F)cc12)C1CCOCC1`: the cytotoxicity at 70.5 h is -16%.

In the case of `CC(Nc1ccc(CCN2CCCCC2)cc1)C(=O)N(C)CCC#N` (centres undefined), the cytotoxicity at 70.5 h was -6.46%. On to `CN(C(=O)c1ccc(OCC(F)F)nc1)c1ccc2c(c1)CCO2`, for which the cytotoxicity at 70.5 h is -4.77%.

On to `COC(=O)CN(Cc1ccccc1C)C(=O)CCCNC(=O)C1CC1`, for which the cytotoxicity at 70.5 h was determined as 10.1%. Consider `Cc1ccc(NC(=O)CCc2ccco2)cc1N1CCOC1=O`, for which the cytotoxicity at 70.5 h was -10.1%.

Turning to `CCCc1nnc(NC(=O)N2CCCC(NC(C)=O)C2)s1` (centres undefined), the cytotoxicity at 70.5 h was -4.43%.

On to `COc1ccc(S(=O)(=O)Cc2cc(C)on2)cc1`, for which the cytotoxicity at 70.5 h is -4.34%. Then `COc1cccc(S(=O)(=O)Cc2cc(C)on2)c1`, with -3.06%; and `Cc1cc(CS(=O)(=O)c2ccccc2)no1`, with -5.49%; and `Cc1nc(NC(=O)C(C)S(C)(=O)=O)sc1Cc1ccccc1F` (centres undefined), with -7.43%. Then `COC(=O)N1CCC(NC(=O)CC(C)CCc2ccccc2)CC1` (centres undefined), with -14%; and `CC(CCc1ccccc1)CC(=O)NC1CCN(CC(N)=O)CC1` (centres undefined), with 0.475%; and `COc1ccnc(N2CCN(C(=O)CCc3cnn(C)c3)CC2)n1`, with -11.9%.

For the compound `COc1cc(OC)c(CNC(=O)NCC(=O)N(C)C)c(OC)c1`, the cytotoxicity at 70.5 h worked out at 1.38%. Next, `NC(=O)C1CCCN1Cc1ccccc1NC(=O)Cc1cccs1` (centres undefined): 13%; `N#Cc1ccc(NC2CCN(c3ncccn3)CC2)cc1C(F)(F)F`: 5.96%. Next, `CCNC(=O)CCC(=O)Nc1nc(C)c(Cc2ccc(F)cc2)s1`: -1.26%; `CSCCC(C)NC(=O)CCN1C(=O)CCc2cc(F)ccc21` (centres undefined): -4.19%.

On to `Cc1ccc(C(=O)NS(C)(=O)=O)cc1I`, for which the cytotoxicity at 70.5 h was 16.8%.

Turning to `Cc1cc(NC(N)=O)ccc1C(=O)N(C)C`, the cytotoxicity at 70.5 h turned out to be 4.17%. Then `CC(O)CNc1nc(-c2cccnc2)nc2c1CCC2` (centres undefined), with 0.874%. With `Cn1ncnc1NS(=O)(=O)c1ccccc1`, the cytotoxicity at 70.5 h worked out at 6.82%. Next, `CC(C)C(C)NC(=O)CCN1C(=O)CCc2cc(F)ccc21` (centres undefined): 19.4%.

Regarding `Cc1cc(C)nc(NC2CCOC3(CCCC3)C2)n1` (centres undefined), the cytotoxicity at 70.5 h is 3.01%. Then `CCOC(=O)CN1CCC(NC(=O)OC(C)(C)C)CC1`, with 14.9%; and `CCOC(C)c1noc(CN(C)C(=O)C2C(C)(C)C2(C)C)n1` (centres undefined), with -2.89%. Next, `Cc1cc(NCC(C)C)ccc1C(=O)N(C)C`: 13.4%; `Cc1nsc(NC2CCOC3(CCCC3)C2)n1` (centres undefined): -1.21%. Next, `CCN(c1ccc(C(=O)N(Cc2cnn(C)c2)C(C)C)cn1)C(C)C`: -24.7%; `CC(C)NC(=O)CCCn1cnc2ccccc2c1=O`: 16.8%. Consider `CC(C)COC(C)C(=O)NCCNC(=O)C(C)C` (centres undefined), for which the cytotoxicity at 70.5 h is -1.79%. Next, `O=C(CCCNC(=O)C1CCCO1)Nc1ccc(Cl)cc1` (centres undefined): 17.1%; `Cc1csc(CNC(=O)NCC2(c3ccc4c(c3)OCO4)CC2)n1`: -2.06%; `CN(CCCc1cc(-c2ccc(F)cc2)n(C)n1)CC(N)=O`: -11.3%. Then `Cc1cc(CN2CCN(c3ccnc(-c4ccccc4)n3)CC2)no1`, with -4.67%. Next, `CC(C(N)=O)N(C)CCCc1cc(-c2ccc(F)cc2)n(C)n1` (centres undefined): -9.74%; `O=C(NCCNS(=O)(=O)C1CCCCC1)c1ccccc1`: -10.7%; `COCCn1ccc(NCc2cc3cc(F)ccc3o2)n1`: -6.3%.

`CC(C)c1nncn1CCNC(=O)c1ccc(Cl)cc1O`: the cytotoxicity at 70.5 h came out at 0.918%.

`Cc1cc(C(=O)N2CCCS2(=O)=O)c(C)o1`: the cytotoxicity at 70.5 h was -9.77%. Next, `Cc1cc(C(=O)N2CCS(=O)(=O)CC2)c(C)o1`: -2.07%; `CCOc1ccc(CN(CCC#N)CCN2CCOCC2)cc1OC`: -0.151%; `COc1ccc(OC)c(CNc2nnc(C(C)(C)C)o2)c1`: -12.4%.

With `COc1cccc(C2CN(CCc3ccncc3)CCO2)c1` (centres undefined), the cytotoxicity at 70.5 h is -6.16%.

With `CCCS(=O)(=O)NCCc1ncc(CC)s1`, the cytotoxicity at 70.5 h is -0.431%. As for `COc1ccc(CN(CCC#N)CCN2CCOCC2)c(OC)c1`, the cytotoxicity at 70.5 h is -4.65%. Next, `CN1CCC(NCC(O)c2cccc(OCc3ccccc3)c2)CC1` (centres undefined): 4.18%; `Cc1ncc(CNCC2CCC(C(N)=O)CC2)n1-c1ccccc1` (centres undefined): 11.9%; `Cc1ccccc1C(=O)NC1CCN(Cc2ncc(C(C)(C)C)o2)CC1`: -0.562%. Then `O=C(CSCc1ccncc1)N(Cc1ccsc1)C1CC1`, with 0.347%; and `COc1ccc(CNC(=O)c2ccc(Br)cn2)cc1`, with 13.3%; and `COC(=O)CNC(=O)C12CCC(=O)N1c1cc(Cl)ccc1S2` (centres undefined), with -1.84%. Then `CCc1noc(CN(CC(=O)N2CCCCC2)c2ccc(C)cc2)n1`, with -1.63%; and `Nc1cc2c(nn1)CCN(C(=O)c1csc(-c3ccccc3)n1)C2`, with -1.92%; and `CC(C)(C)c1cnc(CN2CCC(NC(=O)CC3CCCC3)CC2)o1`, with 14%.

Consider `Cc1ncc(C(=O)NC2CCN(CCOc3ccc(Br)cc3)CC2)s1`, for which the cytotoxicity at 70.5 h is -4.58%.

On to `O=C(CCc1cccc(Cl)c1)NS(=O)(=O)Cc1ccon1`, for which the cytotoxicity at 70.5 h came out at 1.74%. Next, `O=C(CCc1ccco1)NS(=O)(=O)Cc1ccon1`: -3.83%. For `COCCNC(=O)c1nc(-c2cn(C)cn2)n2ccccc12`, the cytotoxicity at 70.5 h is -7.59%. Then `O=C(c1cscn1)N1C[C@H]2CCC[C@@]2(COCc2ccccn2)C1`, with -6.34%. Next, `CCS(=O)(=O)N1CCCn2nnc(CNC(C)=O)c2C1`: 7.38%; `c1cnc(N2CCOCC3(C2)CN(c2nccs2)CCO3)nc1` (centres undefined): -7.1%; `CS(=O)(=O)CC(=O)N1C[C@H]2CCC[C@@]2(COc2ccccn2)C1`: 12.7%.

For the compound `CS(=O)(=O)CC(=O)N1C[C@H]2CCC[C@@]2(COCc2ccncc2)C1`, the cytotoxicity at 70.5 h is -3.98%. Next, `NC(=O)CC1CC2(CCNCC2)c2cc(F)ccc21` (centres undefined): -7.94%.

Values taken from ChEMBL document CHEMBL3507680, “University of Dundee, Gates Library screen for HepG2 cell viability”.
